Assay results: publication PMC12587390, “Metabolite Identification Data in Drug Discovery, Part 1: Data Generation and Trend Analysis” (Molecular Pharmaceutics, 2025)
Values after ≈ are worked out from the molar mass of the structure shown.

Experiments:
[1] = tested on: human hepatocytes; test: Metabolite identification in human hepatocyte incubations; type: in vitro ADME; conditions: 4 μM
Experimental: Cryopreserved, pooled primary human, dog, and rat hepatocytes were obtained from BioIVT (previously Celsis IVT). L-15 Leibovitz buffer was placed in a water bath to reach 37 °C. Cryopreserved hepatocytes were transferred from a −150 °C freezer on dry ice and immediately immersed in a preheated water bath kept at 37 °C for thawing. When only a small ice crystal could be seen, the content was emptied into a 50 mL falcon tube filled with warm buffer (maximum four vials/falcon tube). The suspension was centrifuged at room temperature for 3 min at 50 g. The supernatant was removed, the pellet was resuspended in a small volume of buffer, and the falcon tube was refilled with buffer, followed by another centrifugation to wash away any remaining storage buffer. Thereafter, the supernatant was removed, and the pellet was dissolved in a small volume of buffer and diluted to a concentration of about 3–5 million cells/mL. After counting the cells using a Casy cell counter, the suspension was diluted to 1 million viable cells/mL and kept at room temperature until use. The viability cutoff was 80%.
An aliquot of 245 μL of hepatocyte suspension was added to a round-bottomed 96-deep-well plate using a manual multipipette. The deep-well plate was preincubated for 15 min at 37 °C and 13 Hz. Substrate solutions of the assay compounds were prepared by the robot in a 96-well plate as follows: 4 μL of 10 mM DMSO stock solution, followed by the addition of 96 μL of ACN:water (1:1, v:v) and mixing by shaking. 50 μL from each well were transferred to and combined in a new plate, resulting in 100 μL per well and a dilution of 1:1.
The reaction was started by the addition of 5 μL of 200 μM substrate solution to the preheated hepatocyte suspension, resulting in a final substrate concentration of 4 μM (0.04% DMSO, <0.5% ACN). The incubation was continued at 37 °C and 13 Hz. At each time point (0, 40, and 120 min), a 50 μL sample was taken out and quenched in 200 μL of cold ACN:methanol (1:1, v:v), and the stopped plates were centrifuged for 20 min (set at 4 °C and 4000 g). The supernatant was diluted by taking 50 μL and mixing it with 100 μL of water. Incubations of the positive controls, albendazole and dextromethorphan, were performed in parallel as described above.
Structural characterization of metabolites and metabolite profiling were performed using the Waters Acquity ultraperformance liquid chromatography (UPLC) system fitted to a Waters High-Resolution Mass Spectrometer (MS) (Xevo G2-S, Synapt G2-Si, or a Synapt XS MS). The Waters MS systems, equipped with an electrospray ionization (ESI) source, were operated in positive-ion sensitivity mode over a mass range m/z 50–1200 and in negative-ion sensitivity mode over a mass range m/z of 50–1200.
The reversed-phase gradient elution was performed on an Acquity U(H)-PLC BEH C18 column (2.1 × 100 mm, 1.7 μm, Waters) set at 45 °C. The mobile phases consisted of 0.1% FA in water (A) and ACN (B). […] The injection volume was 2 μL. The MS settings were optimized for the respective MS instrument. […] A scan time of 0.1 s was used, and data were acquired in centroid mode. Collision energy was set to “off” for the low-energy function, whereas in the high-energy MSe functions, the collision energies were typically ramped from 15 to 35 V in the trap cell, with constant collision energies of 20 V in their transfer cells. Cone voltage was set to 25 V for both low- and high-energy functions. For dedicated MS/MS, the m/z of the molecular ion was selected in the quadrupole, and the mass range for fragmentation analysis was typically set between 50 and 1200. The collision energies were either the same as those stated above for MSe data generation or optimized for a specific metabolite.

[2] = LogD, shake-flask method (octanol / buffer pH 7.4); conditions: octanol/10 mM sodium phosphate buffer
Experimental: (§1) LogD was measured using the traditional shake-flask method, with up to ten compounds pooled together. The compounds were dissolved in 10 mM sodium phosphate buffer adjusted to pH 7.4 and an octanol phase (both phases were mixed for 2 h at room temperature). The concentrations in both phases were analyzed by liquid chromatography and quantitative tandem mass spectrometry (LC-MS/MS), and distribution coefficients were determined.

[3] = tested on: human hepatocytes; test: Metabolic stability in human hepatocytes (HH CLint); type: in vitro ADME; conditions: 37 °C, 2 h
Experimental: Metabolic stability in human hepatocytes (HH CLint) was measured by incubating the cells with the test compound at 37 °C for 2 h. An aliquot of the mixture was taken at typically nine defined time points, and the metabolic reaction was stopped by adding ACN. The samples were centrifuged, and the supernatant was analyzed via LC-MS/MS. Intrinsic clearance (CLint) was calculated from the disappearance rate of the parent compound. ,

[4] = Thermodynamic solubility, shake-flask; conditions: 10 mM sodium phosphate buffer, 25 °C, pH 7.4, aqueous buffer, thermodynamic from solid
Experimental: (§2) Solubility was measured as the thermodynamic solubility using a shake-flask approach. Here, DMSO was evaporated from the compound stock solution as the first step. The “dried” compounds were then placed into 10 mM sodium phosphate buffer, adjusted to pH 7.4, and equilibrated at 25 °C for 24 h. The samples were centrifuged, and the solution was analyzed by LC-MS/MS to determine the amount of compound in solution.

[5] = physchem; conditions: 25 °C, pH 7.4, aqueous buffer, thermodynamic from solid
Experimental: as §2

[6] = physchem; conditions: pH 7.4
Experimental: as §1

What does the source list for `Cn1cc(NC(=O)C2CCCCC2C(=O)c2ccc(-c3cc[nH]n3)cc2)c(C(F)F)n1` (stereo not shown) [Cmpd 27, Cn1cc(NC(=O)[C@@H]2CCCC[C@H]2C(=O)c2ccc(-c3cc[nH]n3)cc2)c(C(F)F)n1]?
Metabolites / metabolic pathways identified [1]: amide hydrolysis was not detected; logD at 2 h [2]: 3; HH CLint [3]: 9 μL/min/1E6; solubility at 24 h [4]: 99 µM (≈ 42.3 µg/mL)

With `COc1cc(NC(=O)C2CCCCC2C(=O)c2ccc(-c3cc[nH]n3)cc2)ncn1` (stereo not shown) [Cmpd 17, COc1cc(NC(=O)[C@@H]2CCCC[C@H]2C(=O)c2ccc(-c3cc[nH]n3)cc2)ncn1] as the compound, how does the “Metabolites / metabolic pathways identified” value [1] read?
The value was “ketone reduction, aliphatic hydroxylations, N-glucuronidation, amide hydrolysis, and combinations thereof”.

What about the solubility [5] of the same compound?
The solubility was 22 µM (≈ 8.92 µg/mL).

And the “HH CLint” value [3]?
Its value is 22 μL/min/1E6.

And the logD [6]?
Its logD is 3.9.

Which results are given for `Cn1ncc(NC(=O)C2CCCCC2C(=O)c2ccc(-c3cc[nH]n3)cc2)c1C(F)(F)F` (stereo not shown) [Cmpd 25, Cn1ncc(NC(=O)[C@@H]2CCCC[C@H]2C(=O)c2ccc(-c3cc[nH]n3)cc2)c1C(F)(F)F]?
Metabolites / metabolic pathways identified [1]: amide hydrolysis was not detected; solubility [5]: 80 µM (≈ 35.6 µg/mL); HH CLint [3]: 7 μL/min/1E6; logD [6]: 3.6

With `Cn1ncc(NC(=O)C2CCCCC2C(=O)c2ccc(-c3cc[nH]n3)cc2)c1C(N)=O` (stereo not shown) [Cmpd 18, Cn1ncc(NC(=O)[C@@H]2CCCC[C@H]2C(=O)c2ccc(-c3cc[nH]n3)cc2)c1C(N)=O] as the compound, how does the “Metabolites / metabolic pathways identified” value [1] read?
The value was “the only metabolite identified was the alcohol formed after the reduction of a ketone”.

What about the logD at 2 h [2] of the same compound?
Its logD at 2 h is 2.

And the “HH CLint” value [3]?
Its value is 4 μL/min/1E6.

And the solubility at 24 h [4]?
Its solubility at 24 h is 564 µM (≈ 237 µg/mL).
